Data on 24 compounds can be found in US10604509B2, “Nrf2 regulators” (GlaxoSmithKline Intellectual Property Development Limited, priority 2015, dated 2020).

This assay has as its system NQO1 specific enzyme activity in BEAS-2B cells. Briefly: BEAS-2B NQO1 MTT assay. Format: cell-based. Particulars: BEAS-2B cells, 48 hours with compound, MTT readout, read-out: EC50 of NQO1 specific activity induction. The source says:
NAD(P)H:quinone oxidoreductase 1 (NQO1), also called DT diaphorase, is a homodimeric FAD-containing enzyme that catalyzes obligatory NAD(P)H-dependent two-electron reductions of quinones and protects cells against the toxic and neoplastic effects of free radicals and reactive oxygen species arising from one-electron reductions. The transcription of NQO1 is finely regulated by NRF2, and thus NQO1 activity is a good marker for NRF2 activation. On day one, frozen BEAS-2B cells (ATCC) are thawed in a water bath, counted, and re-suspended at a concentration of 250,000 cells/mL. Fifty microliters of cells are plated in 384 well black clear-bottomed plates. Plates are incubated at 37° C., 5% CO2 overnight. On day two, plates are centrifuged and 50 nL of compound or controls are added to the cells. Plates are then incubated at 37° C., 5% CO2 for 48 hours. On day four, medium is aspirated from the plate and crude cell lysates are made by adding 13 uL of 1× Cell Signaling Technologies lysis buffer with 1 Complete, Mini, EDTA-free Protease Inhibitor Tablet (Roche) for each 10 mL of lysis buffer. After lysis plates are incubated for 20 minutes at room temperature. Two microliters of lysate are removed for use in Cell Titer Glo assay (Promega) and MTT cocktail is prepared (Prochaska et. al. 1998) for measurement of NQO1 activity. Fifty microliters of MTT cocktail is added to each well, plate is centrifuged, and analyzed on an Envision plate reader (Perkin Elmer) using Absorbance 570 nm label for 30 minutes. Product formation is measured kinetically and the EC50 of NQO1 specific activity induction is calculated by plotting the change in absorbance (Delta OD/min) versus the log of compound concentration followed by 3-parameter fitting.
(Formazan colour is commonly taken as a measure of viable cells.)

Structures can show the parent of a compound that is named as a salt. Where two headings read alike, the source gives them in different places.

As for `CCC1CCN(Cc2nccn2Cc2cc(C(CCc3cn(CC)nn3)C(C)C(=O)O)ccc2C)CC1` (single isomer, unassigned) [Example 226, 5-(1-Ethyl-1H-1,2,3-triazol-4-yl)-3-(3-((2-((4-ethylpiperidin-1-yl)methyl)-1H-imidazol-1-yl)methyl)-4-methylphenyl)-2-methylpentanoic acid, Trifluoroacetic Acid Salt], the EC50 – broadly, the concentration at which the effect is half-maximal – fell in the range of 10 to 100 nM.

Turning to `Cc1c(C(CC(=O)O)c2ccc(Cl)c(CN3CCCC(O)C3)c2)ccc2c1nnn2C` (stereo not drawn) [Example 161, 3-(4-chloro-3-((3-hydroxypiperidin-1-yl)methyl)phenyl)-3-(1,4-dimethyl-1H-benzo[d][1,2,3]triazol-5-yl)propanoic Acid], the EC50 (Homo sapiens, BEAS-2B, 48 h) lay within 1000 to 10000 nM.

`Cc1ccc(C(c2ccc3c(nnn3C)c2C)C(C)(C)C(=O)O)cc1Cn1ccnc1CN1CCC(C)CC1` (stereo not drawn) [Example 139, 3-(1,4-Dimethyl-1H-benzo[d][1,2,3]triazol-5-yl)-2,2-dimethyl-3-(4-methyl-3-((2-((4-methylpiperidin-1-yl)methyl)-1H-imidazol-1-yl)methyl)phenyl) propanoic acid]: where the note is “Homo sapiens, BEAS-2B, 48 h”, the concentration giving a half-maximal response (EC50) was in the range of 1000 to 10000 nM.

On to `CC[C@@H]1CN(Cc2cc(C(c3ccc4c(nnn4C)c3C)C(C)(C)C(=O)O)ccc2C)Cc2cccc(F)c2O1` (stereo partly drawn) [Example 34, 3-(1,4-Dimethyl-1H-benzo[d][1,2,3]triazol-5-yl)-3-(3-(((R)-2-ethyl-9-fluoro-2,3-dihydrobenzo[f][1,4]oxaz-epin-4(5H)-yl)methyl)-4-methylphenyl)-2,2-dimethylpropanoic acid, formic acid salt], for which, under “Homo sapiens, BEAS-2B, 48 h”, the EC50 fell in the range of 100 to 1000 nM.

For the compound `COc1ccc2c(c1)CN(Cc1cc([C@H](CC(=O)O)c3ccc4c(nnn4C)c3C)ccc1C)CC(C)(C)O2` [Example 165, (S)-3-(1,4-Dimethyl-1H-benzo[d][1,2,3]triazol-5-yl)-3-(3-((7-methoxy-2,2-dimethyl-2,3-dihydrobenzo[f][1,4]oxazepin-4(5H)-yl)methyl)-4-methylphenyl)propanoic acid, 0.5 Formic Acid Salt], the EC50 (Homo sapiens, BEAS-2B, 48 h) was in the range of 1 to 10 nM.

As to `Cc1ccc(C(c2ccc3c(nnn3C)c2C)C(C)(C)C(=O)O)cc1Cn1ccnc1CC1CCCCC1` (stereo not drawn) [Example 143, 3-(3-((2-(Cyclohexylmethyl)-1H-imidazol-1-yl)methyl)-4-methylphenyl)-3-(1,4-dimethy-1H-benzo[d][1,2,3]triazol-5-yl)-2,2-dimethylpropanoic acid, trifluoroacetic acid salt], the EC50 (Homo sapiens, BEAS-2B, 48 h) was in the range of 1000 to 10000 nM.

Turning to `CC[C@@H]1CN(Cc2cc([C@@H](c3ccc4c(nnn4CC)c3F)[C@@H](C)C(=O)O)ccc2C)Cc2cccc(F)c2O1` [Example 192, (2R,3S)-3-(1-Ethyl-4-fluoro-1H-benzo[d][1,2,3]triazol-5-yl)-3-(3-(((R)-2-ethyl-9-fluoro-2,3-dihydrobenzo[f][1,4]oxazepin-4(5H)-yl)methyl)-4-methylphenyl)-2-methylpropanoic acid], the EC50 (Homo sapiens, BEAS-2B, 48 h) was in the range of 1 to 10 nM.

In the case of `CC[C@@H]1CN(Cc2cc([C@H](CC(=O)O)c3ccc4c(nnn4CC)c3C)ccc2C)Cc2ccccc2O1` [Example 68, (S)-3-(3-(((R)-2-Ethyl-2,3-dihydrobenzo[f][1,4]oxazepin-4(5H)-yl)methyl)-4-methylphenyl)-3-(1-ethyl-4-methyl-1H-benzo[d][1,2,3]triazol-5-yl)propanoic Acid, Formic Acid Salt], the EC50 (Homo sapiens, BEAS-2B, 48 h) lay in the range of 10 to 100 nM.

On to `Cc1ccc(C(CC(=O)O)c2ccc3c(nnn3C)c2C)cc1CN1Cc2ccc(C#N)cc2OC(C)(C)C1` (single isomer, unassigned) [Example 173], for which, for the setting “Homo sapiens, BEAS-2B, 48 h”, the EC50 fell in the range of 10 to 100 nM.

For the compound `CC[C@@H]1CN(Cc2cc([C@H](CC(=O)O)c3ccc4c(nnn4C)c3C)ccc2C)Cc2ccncc2O1` [Example 259, (S)-3-(1,4-dimethyl-1H-benzo[d][1,2,3]triazol-5-yl)-3-(3-(((R)-2-ethyl-2,3-dihydropyrido[4,3-f][1,4]oxazepin-4(5H)-yl)methyl)-4-methylphenyl)propanoic acid], the EC50 (Homo sapiens, BEAS-2B, 48 h) lay within 100 to 1000 nM.

On to `CC[C@@H]1CN(Cc2cc(C(CC(=O)O)c3ccc4c(c3)nnn4C)ccc2C)Cc2ccccc2O1` (stereo partly drawn) [Example 91, 3-(3-(((R)-2-Ethyl-2,3-dihydrobenzo[f][1,4]oxazepin-4(5H)-yl)methyl)-4-methylphenyl)-3-(1-methyl-1H-benzo[d][1,2,3]triazol-5-yl)propanoic acid], for which, under “Homo sapiens, BEAS-2B, 48 h”, the EC50 was 100 to 1000 nM.

As for `Cc1c(C(CC(=O)O)c2ccc(Cl)c(CN3CCCC(n4cccn4)C3)c2)ccc2c1nnn2C` (stereo not drawn) [Example 160, 3-(3-((3-(1H-Pyrazol-1-yl)piperidin-1-yl)methyl)-4-chlorophenyl)-3-(1,4-dimethyl-1H-benzo[d][1,2,3]triazol-5-yl)propanoic Acid, Formic Acid Salt], the EC50 (Homo sapiens, BEAS-2B, 48 h) is 1000 to 10000 nM.

`CC[C@@H]1CN(Cc2cc([C@@H](c3ccc4c(nnn4C)c3C)C(C)(C)C(=O)O)ccc2C)Cc2ccncc2O1` [Example 219, (S)-3-(1,4-Dimethyl-1H-benzo[d][1,2,3]triazol-5-yl)-3-(3-(((R)-2-ethyl-2,3-dihydropyrido[4,3-f][1,4]oxazepin-4(5H)-yl)methyl)-4-methylphenyl)-2,2-dimethylpropanoic Acid, Trifluoroacetate]: the EC50 (Homo sapiens, BEAS-2B, 48 h) is 1 to 10 nM.

With `Cc1ccc(C(c2ccc3c(nnn3C)c2C)C(C)(C)C(=O)O)cc1Cn1ccnc1CN1CCCOCC1` (stereo not drawn) [Example 138, 3-(3-((2-((1,4-Oxazepan-4-yl)methyl)-1H-imidazol-1-yl)methyl)-4-methylphenyl)-3-(1,4-dimethyl-1H-benzo[d][1,2,3]triazol-5-yl)-2,2-dimethylpropanoic Acid], the EC50 (Homo sapiens, BEAS-2B, 48 h) fell in the range of 1000 to 10000 nM.

Turning to `Cc1c(C(CC(=O)O)c2ccc(Cl)c(CN3CCOc4ccccc4C3)c2)ccc2c1nnn2C` (stereo not drawn) [Example 99, 3-(4-Chloro-3-((2,3-dihydrobenzo[f][1,4]oxazepin-4(5H)-yl)methyl)phenyl)-3-(1,4-dimethyl-1H-benzo[d][1,2,3]triazol-5-yl)propanoic Acid, Formic Acid Salt], the EC50 (Homo sapiens, BEAS-2B, 48 h) was in the range of 1000 to 10000 nM.

Regarding `CCC1CCN(Cc2nccn2Cc2cc(C(c3ccc4c(nnn4C)c3C)C(C)(C)C(=O)O)ccc2C)CC1` (stereo not drawn) [Example 140, 3-(1,4-Dimethyl-1H-benzo[d][1,2,3]triazol-5-yl)-3-(3-((2-((4-ethylpiperidin-1-yl)methyl)-1H-imidazol-1-yl)methyl)-4-methylphenyl)-2,2-dimethylpropanoic acid, formic acid salt], the EC50 (Homo sapiens, BEAS-2B, 48 h) was in the range of 1000 to 10000 nM.

As to “3-(1,4-dimethyl-1H-benzo[d][1,2,3]triazol-5-yl)-3-(3-((8-methoxy-4-methyl-4,5-dihydro-1H-benzo[c]azepin-2(3H)-yl)methyl)-4-methylphenyl)propanoic Acid [Example 7]”, the EC50 lay in the range of 1000 to 10000 nM.

`CCn1nnc2c(C)c([C@@H](c3ccc(C)c(CN4Cc5ccccc5OC(C)(C)C4)c3)C(C)(C)C(=O)O)ccc21` (single isomer, unassigned; enantiomer a) [Example 206]: for the setting “Homo sapiens, BEAS-2B, 48 h”, the EC50 is 1 to 10 nM.

With `Cc1ccc([C@H](CC(=O)O)c2ccc3c(nnn3C)c2C)cc1CN1Cc2ccncc2OC(C)(C)C1` [Example 264, (S)-3-(1,4-dimethyl-1H-benzo[d][1,2,3]triazol-5-yl)-3-(3-((2,2-dimethyl-2,3-dihydropyrido[4,3-f][1,4]oxazepin-4(5H)-yl)methyl)-4-methylphenyl)propanoic acid], the EC50 (Homo sapiens, BEAS-2B, 48 h) is 1000 to 10000 nM.

In the case of `CCOC(=O)C(C)(C)[C@@H](c1ccc(C)c(CN2Cc3cnccc3O[C@H](CC)C2)c1)c1ccc2c(nnn2C)c1C` [Example 257, (S)-ethyl 3-(1,4-dimethyl-1H-benzo[d][1,2,3]triazol-5-yl)-3-(3-(((R)-2-ethyl-2,3-dihydropyrido[3,4-f][1,4]oxazepin-4(5H)-yl)methyl)-4-methylphenyl)-2,2-dimethylpropanoate], the EC50 (Homo sapiens, BEAS-2B, 48 h) lay within 100 to 1000 nM.

Consider `CC[C@@H]1CN(Cc2cc(C(CCc3cn(CC)nn3)C(C)(C)C(=O)O)ccc2C)Cc2ncccc2O1` (single isomer, unassigned) [Example 252], for which the EC50 lay within 10 to 100 nM.

As for `CC[C@@H]1CN(Cc2cc([C@@H](CC(=O)O)c3ccc4c(nnn4C)c3C)ccc2C)Cc2ccccc2O1` [Example 51, (R)-3-(1,4-Dimethyl-1H-benzo[d][1,2,3]triazol-5-yl)-3-(3-(((R)-2-ethyl-2,3-dihdyrobenzo[f][1,4]oxazepin-4(5H)-yl)methyl)-4-methylphenyl)propanoic acid, formic acid salt], the EC50 (Homo sapiens, BEAS-2B, 48 h) lay in the range of 100 to 1000 nM.

For `CC[C@@H]1CN(Cc2cc([C@@H](c3ccc4c(nnn4C)c3C)C(C)(C)C(=O)O)ccc2C)Cc2cnc(Cl)cc2O1` [Example 29], the EC50 (Homo sapiens, BEAS-2B, 48 h) is under 1 nM.

As to `Cc1ccc(C(CC(=O)O)c2ccc3c(nnn3C)c2C)cc1CN1CCCC1c1nnc(C(C)C)[nH]1` (stereo not drawn) [Example 10, Ammonium 3-(1,4-dimethyl-1H-benzo[d][1,2,3]triazol-5-yl)-3-(3-((2-(5-isopropyl-4H-1,2,4-triazol-3-yl)pyrrolidin-1-yl)methyl)-4-methylphenyl)propanoate], the EC50 (Homo sapiens, BEAS-2B, 48 h) is 1000 to 10000 nM.
